Where two headings read alike, the source gives them in different places. Where a SMILES comes first, the peptide text is derived from it. [ ]: non-standard residue; d: D form. The star is where a group is joined. Ac5c = NC1(C(=O)O)CCCC1; Cbz = O=C(OCc1ccccc1)*
Legend:
[1] = target: T1, SARS-CoV-2 nsp14 MTase (Severe acute respiratory syndrome coronavirus 2, UniProt P0DTD1); assay: biochemical; assay type: biochemical; settings: for IC50: nsp14 MTase activity, high-throughput screening follow-up
[2] = target: nsp14 (Severe acute respiratory syndrome coronavirus 2, UniProt P0DTD1); assay: surface plasmon resonance (SPR) binding to immobilized full-length biotinylated nsp14; set-up: species or system SARS-CoV-2
Experimental: For Surface Plasmon Resonance (SPR), the full-length biotinylated nsp14 was immobilized on the flow cell of a SA sensor chip in 1x HBS-EP buffer, achieving a response of 8000 RU. The assay was performed using the same buffer but with 2% DMSO added. Single-cycle kinetics were employed with a contact time of 60 seconds and a dissociation time of 120 seconds, at a flow rate of 75 µL/min. NSC620333 was tested at a concentration of 10 µM as the highest concentration, and a dilution factor of 0.25 was used to yield five different concentrations.

[3] = tested on: SARS-CoV-2; assay type: cell-based; settings: Calu-3 cells, lung epithelial SARS-CoV-2 infection model
[4] = target: T1, SARS-CoV-2 nsp14 MTase; settings: inhibition of nsp14 methyltransferase activity; cited from earlier work
[5] = compound 100µM, replicate experiment 1
[6] = compound 100µM, replicate experiment 2

| Structure (SMILES) | nsp14 Inhibition % (100µM) Exp 1 [1, 5] [%] | nsp14 Inhibition % (100µM) Exp 2 [1, 6] [%] | other results |
| --- | --- | --- | --- |
| O=C(O)c1ccc(C(=O)c2ccc(C(=O)c3ccc(C(=O)O)cc3)cc2)cc1 [NSC2269] | 64 | 60 | IC50 ([1]; read-out: IC50): 27 µM |
| O=C(CN1CCOCC1)C(O)C(O)C(O)CO (stereo not shown) [NSC4348] | 73 | 61 | IC50 ([1]; read-out: IC50): 34 µM |
| O=C(O)c1nc(N=Nc2ccc(S(=O)(=O)O)cc2)[nH]c1C(=O)O [NSC4624] | 65 | 47 |  |
| O=C(N/N=C/[C@H](O)[C@H]1OC(=O)[C@@H](O)[C@H]1O)c1ccncc1 [NSC27605] | 26 | 10 |  |
| OCC(O)C(O)C(O)C(O)c1nc2ccccc2s1 (stereo not shown) [NSC34443] | 86 | 81 | IC50 ([1]; read-out: IC50): 57 µM |
| O=C(NNCNNC(=O)c1ccncc1)c1ccncc1 [NSC39302] | 7 | −2 |  |
| Nc1nc2nn(-c3ccc(C(=O)NC(CCC(=O)O)C(=O)O)cc3)nc2c(=O)[nH]1 (stereo not shown) [NSC44037] | 15 | 9 |  |
| OCCNc1ncnc2c1ncn2[C@@H]1O[C@H](CO)[C@@H](O)[C@H]1O [NSC54251] | 4 | −4 |  |
| O=C1C2C3C=CC(O3)C2C(=O)N1/N=C/C(O)C(O)C(O)C(O)CO (stereo not shown) [NSC60360] | 4 | −4 |  |
| O=c1cc(-c2ccc(O)cc2)oc2c(O)c(O)c(O)c(O)c12 [NSC76988] |  |  | IC50 ([1]; IC50 (µM)): 6 µM; inhibition at 100 µM ([1]; compound 100µM, replicate experiment 1, read-out: nsp14 Inhibition % (100µM) Exp 1): 100%; inhibition at 100 µM ([1]; compound 100µM, replicate experiment 2, read-out: nsp14 Inhibition % (100µM) Exp 2): 99%; direct binding to nsp14 [2]: no direct binding was detected; anti-SARS-CoV-2 activity [3]: demonstrated anti-SARS-CoV-2 activity |
| O=C1C=C(O)C(=C/C=C/C=C/c2c(O)cc(O)cc2O)C(O)=C1 [NSC77131] | 99 | 99 | IC50 ([1]; read-out: IC50): 9 µM |
| Nc1ncnc2c1ncn2[C@H]1C[C@H](O)[C@@H](COP(=O)(O)O)O1 [NSC77680] | 13 | 7 |  |
| O=C(O)CNC(=O)C1(NC(=O)CNC(=O)OCc2ccccc2)CCCC1 [NSC80136] (Cbz-Gly-[Ac5c]-Gly-OH) | 13 | 2 |  |
| O=C(CCCCn1ccc(=O)[nH]c1=O)Nc1ccc(C(=O)O)c(O)c1 [NSC92432] | 6 | −1 |  |
| CN(CC(O)C(O)C(O)C(O)CO)CN1C(=O)C(=O)c2ccccc21 (stereo not shown) [NSC99790] | 46 | 36 |  |
| O=S(=O)(O)c1cc(Cl)cc(N=Nc2ccc(O)cc2O)c1O [NSC102798] | 77 | 74 |  |
| OC1COC(n2cnc3c(=S)nc[nH]c32)C(O)C1O (stereo not shown) [NSC107661] | 18 | 7 |  |
| Nc1ncnc2c1ncn2C1OC(CO)C(NC(=O)C(N)Cc2ccccc2)C1O (stereo not shown) [NSC114010] | 11 | −3 |  |
| NC(CCC(=O)NC(CSCc1ccc(F)cc1)C(=O)NCC(=O)O)C(=O)O (stereo not shown) [NSC131119] | 8 | 0 |  |
| NC(CCCNc1nc(O)c(-c2ccccc2)c(=O)[nH]1)C(=O)O (stereo not shown) [NSC132916] | −1 | −3 |  |

| Structure (SMILES) | nsp14 Inhibition % (100µM) Exp 1 [1, 5] [%] | nsp14 Inhibition % (100µM) Exp 2 [1, 6] [%] | other results |
| --- | --- | --- | --- |
| O=C(O)/C=C\C(=O)NCC1CCC(CNC(=O)/C=C\C(=O)O)CC1 (stereo not shown) [NSC137050] | 6 | −1 |  |
| NS(=O)(=O)c1ccc(NC2OCC(O)C(O)C2O)cc1 (stereo not shown) [NSC158437] | 5 | 1 |  |
| Nc1ncnc2c1ncn2C1OC(C(=O)NCC(=O)O)C(O)C1O (stereo not shown) [NSC163444] | 9 | 5 |  |
| O=C(O)c1cc(=O)n(CCCCCCn2c(=O)cc(C(=O)O)[nH]c2=O)c(=O)[nH]1 [NSC232469] | 7 | −7 |  |
| O=P(O)(O)OC[C@H]1O[C@@H](n2cnc3c(NCc4ccccc4)ncnc32)[C@H](O)[C@@H]1O [NSC255523] | 59 | 33 |  |
| CC(C)=CCNc1ncnc2c1ncn2[C@@H]1O[C@H](COP(=O)(O)O)[C@@H](O)[C@H]1O [NSC268226] | 9 | 0 |  |
| Cn1c(=O)c2c(ncn2CCCNCC(O)c2ccc(O)c(CO)c2)n(C)c1=O (stereo not shown) [NSC293892] | 15 | 3 |  |
| CC(CCc1ccc2c(c1)OCO2)NCC(O)c1ccc(O)c(C(N)=O)c1 (stereo not shown) [NSC313453] |  |  | inhibition at 100 µM ([1]; read-out: nsp14 Inhibition % (100µM) Exp 1): 3%; inhibition at 100 µM ([1]; read-out: nsp14 Inhibition % (100µM) Exp 2): -5% |
| O=C(O)CCC(=O)NCC1CCCC(CNC(=O)CCC(=O)O)C1 (stereo not shown) [NSC317609] | 7 | 1 |  |
| O=P(O)(O)OC1OC(n2cnc3c(NCc4ccc(F)cc4)ncnc32)C(O)C1O (stereo not shown) [NSC330685] | 4 | 2 |  |
| O=C(O)C(Cc1ccc(O)cc1)NC(c1ccccc1)P(=O)(O)O (stereo not shown) [NSC377438] | 8 | −3 |  |
| NC(CSCCSCCSCC(N)C(=O)O)C(=O)O (stereo not shown) [NSC400718] | 89 | 88 | IC50 ([1]; read-out: IC50): 38 µM |
| O=S(=O)(O)c1ccc(N=Nc2c(O)ccc3n[nH]nc23)cc1 [NSC400937] | 73 | 66 |  |
| O=c1ccn(C2OC(C(O)CO)C(O)C2O)c(=O)[nH]1 (stereo not shown) [NSC613624] | 4 | −1 |  |
| COc1cc(N=Nc2ccccc2C(=O)O)cc(/C=N/NNC(N)=S)c1O [NSC630814] | 84 | 82 |  |
| O=C1NC(=O)C(C(=O)C(=O)Nc2cccc(C(F)(F)F)c2)C(=O)N1 [NSC646375] | 26 | 20 |  |
| NC(CCCC(N)P(=O)(O)c1ccccc1)P(=O)(O)c1ccccc1 (stereo not shown) [NSC655184] | 7 | −11 |  |
| O=C(O)c1ccc(Nc2nc3ccccc3nc2C(=O)O)cc1 [NSC670682] | 50 | 54 |  |
| N#Cc1cn([C@@H]2O[C@H](CSCC[C@H](N)C(=O)O)C(O)[C@@H]2O)c2ncnc(N)c12 (stereo partly shown) [SS148] |  |  | IC50 [4]: 70 ± 6 nM |

Reference: doi:[…]/2023.10.03.560722, “Drug Discovery in Low Data Regimes: Leveraging a Computational Pipeline for the Discovery of Novel SARS-CoV-2 Nsp14-MTase Inhibitors” (bioRxiv, 2024)
